Data from the METLIN SMRT retention time set (Domingo-Almenara et al. 2019).

Test: gradient 5% acetonitrile 3 min, to 50% in 2 min, to 85% in 15 min, held 3 min, 100 µL/min
Conditions: column: Zorbax Extend-C18 2.1 x 50 mm; eluents: water / acetonitrile, 0.1% formic acid
Summary of the method: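 Retention time was recorded from adduct peaks, which were picked computationally and each inspected manually. Pure standards ran in mixtures of ~100 molecules on HPLC coupled to a quadrupole time-of-flight mass spectrometer, in positive and negative ionization mode, through a Zorbax Extend-C18 column (2.1 × 50 mm, 1.8 μm) at 100 μL/min. Eluents were water and acetonitrile, each with 0.1% formic acid.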

| Compound | RP-LC retention time [s] |
| --- | --- |
| O=S(=O)(Cc1ccc(F)cc1)NCCc1csc2nc(-c3cccs3)nn12 | 822 |
| CCOC(=O)C1CCCN(c2nc(-c3ccc(Cl)cc3)nc3ccccc23)C1 (stereo not drawn) | 936 |
| Cn1c(=O)n(C)c2cc(Nc3cc(N4CCOCC4)ncn3)ccc21 | 566 |
| COc1ccc(-c2cc(C(=O)N3CCN(c4ccc(N5CCOCC5)nn4)CC3)[nH]n2)cc1 | 625 |
| CCOc1ccc(-c2cc(=O)n(CCCC(=O)Nc3ccc(-n4cnnn4)cc3)cn2)cc1 | 696 |
| Cc1ccc(C)c(CNS(=O)(=O)c2cc(-c3[nH]ncc3C(=O)N3CCCC3)oc2C)c1 | 835 |
| Cc1cccc(NC(=O)C2CCN(S(=O)(=O)c3cn(C(C)C)cn3)CC2)n1 | 632 |
| Cc1ccnc(NC(=O)C2CCN(S(=O)(=O)c3ccc(-c4noc(C5CC5)n4)cc3)CC2)c1 | 794 |
| O=C(c1cc(N2C(=O)CCS2(=O)=O)ccc1Cl)N1CCN(c2ccccn2)CC1 | 566 |
| COc1ccc(C(=O)N2CCC3(CC2)NC(=O)c2ccc(Cl)cc2N3)cc1OC | 692 |
| Cc1cc(C)n(CCC(=O)NCCn2c(C)cnc2C2CCC2)n1 | 577 |
| CC(C)OCCCNC(=O)c1nnc(-c2ccc(S(=O)(=O)N3CCOCC3)cc2)o1 | 784 |
| O=C(Cn1cnc2nc(N3CCC(C(=O)NC4CC4)CC3)sc2c1=O)Nc1cc(F)cc(F)c1 | 694 |
| CN(C)C(CNC(=O)C(=O)NCCC1=CCCCC1)c1ccsc1 (stereo not drawn) | 590 |
| CCOc1ccc(-n2nnc(-c3nc(C)c(C(=O)N4CCC(C(N)=O)CC4)s3)c2C)cc1 | 719 |
| Cc1ccc(NC(=O)Cn2c(=O)n(-c3ccccc3)c3ncccc32)cc1C | 906 |
| COc1cc(C(=O)N2CCC[C@@H]2C(=O)NCc2csc(-c3ccccc3)n2)cc(OC)c1OC | 769 |
| CCOC(=O)C1=C(CN2CCN(CC)CC2)NC(=O)NC1c1ccccc1Cl (stereo not drawn) | 571 |
| CCc1ccc(Nc2ncccc2S(N)(=O)=O)cc1 | 891 |
| O=c1n(CC2CC2)nc2n1CCC(NS(=O)(=O)Cc1ccccc1)CC2 (stereo not drawn) | 704 |
| Cc1ccc(-c2nc(C3CCN(S(=O)(=O)c4cccc(F)c4)CC3)no2)cc1 | 1160 |
| O=C(Cn1ccc2sccc2c1=O)Nc1ccc(F)cc1 | 728 |

| Compound | RP-LC retention time [s] |
| --- | --- |
| O=C(Nc1ccc(F)cc1)C1CC(=O)N(c2n[nH]c3cccc(F)c23)C1 (stereo not drawn) | 740 |
| Cc1ccc(Cl)cc1NC(=O)CN1CCN(c2ccc(F)cc2)CC1 | 658 |
| CCCn1c(C(=O)NCCc2ccc(S(N)(=O)=O)cc2)cc2c(=O)n(C)c(=O)n(C)c21 | 631 |
| COc1ccccc1N1CCN(C(=O)C2CCCN(c3nccc4sc(C)cc34)C2)CC1 (stereo not drawn) | 711 |
| O=C(NCc1ccccn1)C(=O)Nc1ccc(F)c(Cl)c1 | 632 |
| COC(=O)c1cccc(COC(=O)C2=CN(C)S(=O)(=O)N=C2C)c1 | 874 |
| C=CCCC1(C2=CCCCC2)C(=O)NC(=O)NC1=O | 804 |
| CCC(=O)N(C)CCc1noc(-c2ccc(C(=O)NCCOC)cc2)n1 | 644 |
| CCc1cccc(NC(=O)C2CCCN(S(=O)(=O)c3cn(C(C)C)cn3)C2)c1 (stereo not drawn) | 893 |
| Cc1sc2ccn(C)c(=O)c2c1C(=O)NCc1cccc(Br)c1 | 834 |
| Cc1oc2c(c1C(=O)Nc1ccc3c(c1)OCO3)C1=NC(C)(C)CN1C=N2 | 665 |
| Cc1cc2c(OCC(CNC(C)(C)C)OC(=O)c3ccccc3)cccc2[nH]1 (stereo not drawn) | 799 |
| Cc1ccccc1CNC(=O)C1CCN(S(=O)(=O)c2cc(C(=O)N(C)C)cs2)CC1 | 762 |
| CCOC(=O)c1c(C)n(C)c2ccc(OCCN(C)C)cc12 | 632 |
| O=C(NCc1cccc2ccccc12)NCC1CN(c2ccccc2)C(=O)O1 (stereo not drawn) | 781 |
| O=C(CCCc1ccccc1)NCC(=O)N1CCN(c2ccccn2)CC1 | 605 |
| O=[N+]([O-])c1cccnc1Oc1cccnc1 | 716 |
| CSc1ccc(CNS(=O)(=O)c2cc3c(s2)CCN(C(=O)C2CC2)C3)cc1 | 872 |
| O=C(NC1CCCC1)C1CCN(C(=O)c2cccn2-c2cccnc2)CC1 | 632 |
| O=C(N1CCC(Cc2ccc(COc3cccnc3)cc2)CC1)C1(c2ccccc2)CC1 | 891 |
| Cc1ccc(Nc2cc(N3CCN(C(=O)COc4ncccn4)CC3)nc(C)n2)cc1 | 563 |
| CC(C(=O)N1CCCc2ccccc21)n1nc(-c2ccc3c(c2)OCCO3)ccc1=O (stereo not drawn) | 871 |

| Compound | RP-LC retention time [s] |
| --- | --- |
| Cc1cc(C(=O)NC(C)C)c2cc(Cl)ccc2n1 | 718 |
| O=C1CCCCC(C(=O)Nc2cccc(Cl)c2)N1 (stereo not drawn) | 712 |
| Cc1ccc(NC(=O)Cn2c(C)nc3c(sc4nc(-c5ccccc5)ccc43)c2=O)cc1C | 1120 |
| Cc1ccc(NC(=O)Cn2nc(N3CCSCC3)c3ccccc3c2=O)cc1Cl | 970 |
| Cc1cc(NC(=O)Nc2ccc3c(c2)CCN3S(C)(=O)=O)ccc1Br | 943 |
| Cc1ccc(S(=O)(=O)N2CCC3(CC2)NCCN=C3NCc2ccc(F)cc2)cc1C | 757 |
| CCOc1cc(-c2ccccc2)nc2ccc(NC(=O)c3cccs3)cc12 | 754 |
| CCc1nc(-c2csc(S(=O)(=O)N3CCCC(C(=O)NC4CCCCCC4)C3)c2)no1 (stereo not drawn) | 1060 |
| CCN1C(=O)CCc2cc(NS(=O)(=O)c3ccc4c(c3)OCCO4)ccc21 | 794 |
| CC(C)CC(=O)N1CCN(c2ccc(=O)n(-c3ccc(C(C)C)cc3)n2)CC1 | 902 |
| Cc1ccc(CNC(=O)C2CCCCC(=O)N2C)o1 (stereo not drawn) | 644 |
| CCCN1C(=O)COc2ccc(-c3noc(-c4ccc(OC)cc4C)n3)cc21 | 1320 |
| COc1ccccc1NC(=O)N1CCC2(CC1)NC(=O)c1cc(Cl)ccc1N2C | 806 |
| CN(C)c1ccc(CNC(=O)Cn2cc(-c3nnco3)c3ccccc32)cc1 | 615 |
| COc1cc(-c2nnc(-c3cccc(S(=O)(=O)N(C)C)c3)o2)cc(OC)c1OC | 873 |
| COc1ccc2c(c1)C1(CCN(C(=O)c3cccc(F)c3)C1)C(=O)N2C (stereo not drawn) | 782 |
| CC(C)NC(=O)N1CCC(N2C(=O)C3(CCCC3)C2c2ccccc2)CC1 (stereo not drawn) | 837 |
| CCCN(CC1CCOC1)C(=O)Nc1ccc(OC)c(F)c1 (stereo not drawn) | 777 |
| O=C(CC1OC(=O)c2ccccc21)c1ccc(Br)cc1 (stereo not drawn) | 905 |
| COc1ccccc1C(=O)NC1(C(F)(F)F)C(=O)N(CC(C)C)C2=C1C(=O)CC(C)(C)C2 (stereo not drawn) | 1070 |
| CC(C)Cn1nc2ccc(S(=O)(=O)N3CCOCC3)cn2c1=O | 732 |
| O=C(Nc1cccc(F)c1)c1nnc(CCCC(=O)N2CCN(c3ccccn3)CC2)s1 | 646 |

| Compound | RP-LC retention time [s] |
| --- | --- |
| Cc1ccc(C(O)Cn2ccn3nc(-c4ccc(F)cc4)cc3c2=O)cc1 (stereo not drawn) | 966 |
| COc1ccc(NC(=O)Nc2c(-c3ccc(C)cc3)nc3ccccn23)cc1Cl | 712 |
| O=C(Nc1ccc(OC(F)(F)F)cc1)C1CCN(C(=O)C2Sc3ccccc3NC2=O)CC1 (stereo not drawn) | 893 |
| Cc1ccc(C)c(-c2cc3c4nn(CC(=O)NCc5ccco5)c(=O)n4ccn3n2)c1 | 883 |
| O=C(NCCCN1CCCCC1)C1=C2CCCN2c2ccc(F)cc2S1(=O)=O | 606 |
| Cc1cccc(NC(=O)Cn2ccc3ccc(-c4nnc(C)o4)cc32)c1 | 814 |
| COc1ccccc1/C=C/c1nn2c(-c3cccnc3)nnc2s1 | 872 |
| O=C(CN1C(=O)C(C(=O)N2CCCC2)Sc2ccccc21)Nc1ccc(F)c(F)c1 (stereo not drawn) | 1040 |
| CNC(=O)c1sc2nc(-c3cccc(OC)c3)c(NCCOC)n2c1C | 696 |
| O=C(NC1CCCCC1)C1CCN(C(=O)c2cc(-c3ccncc3)n[nH]2)CC1 | 590 |
| COCCNC(=O)[C@@H]1[C@H](c2cc(OC)c(OC)c(OC)c2)c2cc3c(cc2[C@H](O)[C@H]1CO)OCO3 | 623 |
| COc1ccc(OC)c(NC(=O)N(C)CCc2noc(-c3ccccc3)n2)c1 | 918 |
| O=C(CSc1ccc(-n2ccnc2)nn1)NC1CCCCC1 | 564 |
| Cc1nc(C)c(C(=O)N2CCCCCCN(C)C(=O)[C@@H]3CCC[C@@H]32)s1 | 728 |
| Cc1ccc(CNC(=O)C2(C)CN(S(C)(=O)=O)CC(=O)N2Cc2ccc(F)cc2)cc1 (stereo not drawn) | 836 |
| COCC(=O)N1CCC2(CC1)Nc1ccc(C)c(C)c1-n1cccc12 | 823 |
| CCS(=O)(=O)c1ccc2c(c1)N(Cc1nc(-c3ccc(OC)c(OC)c3)no1)C(=O)CO2 | 817 |
| CCn1nnc2c(N3CCc4cc(OC)c(OC)cc4C3C)ncnc21 (stereo not drawn) | 784 |
| CSc1cccc(NC(=O)C2CCN(S(=O)(=O)c3ccc4[nH]c(=O)ccc4c3)CC2)c1 | 784 |
| N#CCn1nc2n(c1=O)CCN(S(=O)(=O)c1cccc3cccnc13)CC2 | 702 |
| NS(=O)(=O)c1cccnc1Nc1ccc(Br)cc1 | 913 |
| Cc1ccc(-c2ccc(-n3nc(C)c(S(=O)(=O)NCCN4CCCCC4C)c3C)nn2)cc1C (stereo not drawn) | 748 |
